Where “and” joins values, the source holds several entries; their conditions need not be identical. Equal values may be shown once. Toxic doses and inconclusive results are not listed. Cut-off read from the data, not from the text of the source: active = T/C of 150% or more; inactive = T/C below 125%. Square brackets hold non-standard residues; d marks the D form. Peptide text beside a SMILES is read from it. ξ: configuration not given here. ξK = NCCCCC(N)C(=O)O
System: L1210 leukemia ip in BDF1 mice, survival T/C
Assay: NCI In Vivo Anticancer Drug Screen. Data for tumor model L1210 Leukemia (intraperitoneal) in B6D2F1 (BDF1) mice
Settings: endpoint: mean survival time, higher = longer survival
In short: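 Ratio derived from survival: compound-dosed mice over vehicle-dosed mice, all bearing a transplantable tumor.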

[1] = dose: 100.0 mg/kg/injection, schedule: Q01DX001 (ip), vehicle: saline with Tween-80
[2] = dose: 100.0 mg/kg/injection, schedule: Q04DX002 (ip), vehicle: saline with Tween-80
[3] = dose: 100.0 mg/kg/injection, schedule: Q04DX003 (ip), vehicle: saline with Tween-80
[4] = dose: 200.0 mg/kg/injection, schedule: Q01DX001 (ip), vehicle: saline with Tween-80
[5] = dose: 200.0 mg/kg/injection, schedule: Q04DX002 (ip), vehicle: saline with Tween-80
[6] = dose: 200.0 mg/kg/injection, schedule: Q04DX003 (ip), vehicle: saline with Tween-80
[7] = dose: 400.0 mg/kg/injection, schedule: Q04DX002 (ip), vehicle: saline with Tween-80
[8] = dose: 400.0 mg/kg/injection, schedule: Q04DX003 (ip), vehicle: saline with Tween-80
[9] = dose: 100.0 mg/kg/injection, schedule: Q01DX009 (ip), vehicle: saline with Tween-80
[10] = dose: 200.0 mg/kg/injection, schedule: Q01DX009 (ip), vehicle: saline with Tween-80
[11] = dose: 400.0 mg/kg/injection, schedule: Q01DX009 (ip), vehicle: saline with Tween-80
[12] = dose: 100.0 mg/kg/injection, schedule: Q01DX001 (ip), vehicle: saline
[13] = dose: 100.0 mg/kg/injection, schedule: Q01DX001 (ip), vehicle: carboxymethylcellulose (CMC)
[14] = dose: 100.0 mg/kg/injection, schedule: Q04DX003 (ip), vehicle: carboxymethylcellulose (CMC)
[15] = dose: 200.0 mg/kg/injection, schedule: Q01DX001 (ip), vehicle: carboxymethylcellulose (CMC)
[16] = dose: 200.0 mg/kg/injection, schedule: Q04DX003 (ip), vehicle: carboxymethylcellulose (CMC)
[17] = dose: 400.0 mg/kg/injection, schedule: Q01DX001 (ip), vehicle: carboxymethylcellulose (CMC)
[18] = dose: 400.0 mg/kg/injection, schedule: Q04DX003 (ip), vehicle: carboxymethylcellulose (CMC)
[19] = dose: 100.0 mg/kg/injection, schedule: Q04DX003 (ip), vehicle: Klucel (hydroxypropylcellulose) (HPC)
[20] = dose: 200.0 mg/kg/injection, schedule: Q04DX003 (ip), vehicle: Klucel (hydroxypropylcellulose) (HPC)
[21] = dose: 100.0 mg/kg/injection, schedule: Q04DX002 (ip), vehicle: saline

Measured: T/C

CCOC(=O)N/N=C/c1ccc(N(C)CCC#N)cc1
inactive: [1] 100 % of control | [2] 95 % of control and 107 % of control | [3] 102 % of control | [4] 103 % of control | [5] 96 % of control and 104 % of control | [6] 93 % of control and 98 % of control | [7] 98 % of control and 107 % of control | [8] 94 % of control and 96 % of control

CCC1(C(C)Br)OC2=C(CC(C#N)(C#N)C(C#N)(C#N)C2)O1 (centres undefined)
inactive: dose: 25.0 mg/kg/injection, schedule: Q01DX009 (ip), vehicle: other 100 % of control | dose: 50.0 mg/kg/injection, schedule: Q01DX009 (ip), vehicle: saline 87 % of control | dose: 75.0 mg/kg/injection, schedule: Q01DX001 (ip), vehicle: saline 100 % of control | dose: 75.0 mg/kg/injection, schedule: Q01DX009 (ip), vehicle: other 87 % of control

COc1ccc(Cl)cc1NC(=O)Oc1ccc2ccccc2c1
inactive: [1] 89 % of control | [9] 98 % of control and 100 % of control | [3] 91 % of control | [4] 100 % of control | [10] 98 % of control and 92 % of control | [6] 96 % of control | dose: 400.0 mg/kg/injection, schedule: Q01DX001 (ip), vehicle: saline with Tween-80 96 % of control | [11] 100 % of control and 91 % of control | [8] 103 % of control

CCCCCCCCC(=O)NCCCNC(=O)CCCCCCCC
inactive: dose: 30.0 mg/kg/injection, schedule: Q01DX001 (ip), vehicle: saline 96 % of control | [12] 91 % of control | dose: 300.0 mg/kg/injection, schedule: Q01DX001 (ip), vehicle: saline 93 % of control

COC(=O)C1=C(C(=O)OC)C2(C)OC1C1OC12 (centres undefined)
inactive: dose: 12.5 mg/kg/injection, schedule: Q01DX009 (ip), vehicle: Klucel (hydroxypropylcellulose) (HPC) 97 % of control | dose: 25.0 mg/kg/injection, schedule: Q01DX009 (ip), vehicle: Klucel (hydroxypropylcellulose) (HPC) 90 % of control

NCCCCC(NC(=O)CN)C(=O)O (centres undefined) (H-Gly-[ξK]-OH)
inactive: [12] 101 % of control | dose: 200.0 mg/kg/injection, schedule: Q01DX001 (ip), vehicle: saline 103 % of control | dose: 400.0 mg/kg/injection, schedule: Q01DX001 (ip), vehicle: saline 95 % of control

CCC/C=C\COc1ccc(C(=O)OCC)cc1
inactive: dose: 100.0 mg/kg/injection, schedule: Q04DX002 (ip), vehicle: other 111 % of control | dose: 200.0 mg/kg/injection, schedule: Q04DX002 (ip), vehicle: other 108 % of control | dose: 400.0 mg/kg/injection, schedule: Q04DX002 (ip), vehicle: other 97 % of control

N#CCCN(C(=O)Nc1cccc(C(F)(F)F)c1)C1CCCCC1
inactive: [13] 100 % of control and 103 % of control | dose: 100.0 mg/kg/injection, schedule: Q01DX009 (ip), vehicle: carboxymethylcellulose (CMC) 90 % of control | dose: 100.0 mg/kg/injection, schedule: Q04DX002 (ip), vehicle: carboxymethylcellulose (CMC) 93 % of control and 89 % of control | [14] 100 % of control and 103 % of control | [15] 96 % of control and 100 % of control | dose: 200.0 mg/kg/injection, schedule: Q01DX009 (ip), vehicle: carboxymethylcellulose (CMC) 90 % of control | dose: 200.0 mg/kg/injection, schedule: Q04DX002 (ip), vehicle: carboxymethylcellulose (CMC) 93 % of control | [16] 93 % of control | [17] 92 % of control and 102 % of control | dose: 400.0 mg/kg/injection, schedule: Q04DX002 (ip), vehicle: carboxymethylcellulose (CMC) 86 % of control | [18] 95 % of control

CCc1c(C/C(=N/O)C(=O)O)[nH]c(=S)[nH]c1=O
inactive: [3] 97 % of control | [6] 97 % of control | [8] 96 % of control

COc1cc(NC(=O)Oc2ccc([N+](=O)[O-])cc2)ccc1S(=O)(=O)F
inactive: [9] 94 % of control | [10] 103 % of control | [11] 103 % of control

O=C1C=Cc2cccc3cccc1c23
inactive: [19] 98 % of control | [20] 112 % of control

CC1(C)CC(N=Cc2ccccc2O)CC(C)(C)N1O.CC1(C)CC(N=Cc2ccccc2O)CC(C)(C)N1O.[Zn]
inactive: dose: 25.0 mg/kg/injection, schedule: Q04DX002 (ip), vehicle: Klucel (hydroxypropylcellulose) (HPC) 91 % of control | dose: 50.0 mg/kg/injection, schedule: Q04DX002 (ip), vehicle: Klucel (hydroxypropylcellulose) (HPC) 91 % of control | dose: 100.0 mg/kg/injection, schedule: Q04DX002 (ip), vehicle: Klucel (hydroxypropylcellulose) (HPC) 94 % of control

CCCCCCCCCCCCCCS(=O)(=O)CCCl
inactive: [14] 98 % of control | [16] 94 % of control | [18] 94 % of control

Cc1nc(N)[nH]c(=O)c1CCCNC(=O)c1ccc(C(=O)CBr)cc1
inactive: dose: 50.0 mg/kg/injection, schedule: Q01DX001 (ip), vehicle: Klucel (hydroxypropylcellulose) (HPC) 90 % of control | dose: 200.0 mg/kg/injection, schedule: Q01DX001 (ip), vehicle: Klucel (hydroxypropylcellulose) (HPC) 93 % of control

CCCCC(CC)CP(=O)(CC(CC)CCCC)CC(CC)CCCC (centres undefined)
inactive: dose: 55.0 mg/kg/injection, schedule: Q01DX Z (ip), vehicle: methylcellulose (MC) 104 % of control | dose: 83.0 mg/kg/injection, schedule: Q01DX Z (ip), vehicle: methylcellulose (MC) 100 % of control | dose: 125.0 mg/kg/injection, schedule: Q01DX Z (ip), vehicle: methylcellulose (MC) 108 % of control

O=CNc1ccc(Br)cc1
inactive: dose: 50.0 mg/kg/injection, schedule: Q04DX003 (ip), vehicle: Klucel (hydroxypropylcellulose) (HPC) 97 % of control | dose: 100.0 mg/kg/injection, schedule: Q01DX009 (ip), vehicle: Klucel (hydroxypropylcellulose) (HPC) 98 % of control | [19] 97 % of control | dose: 200.0 mg/kg/injection, schedule: Q01DX009 (ip), vehicle: Klucel (hydroxypropylcellulose) (HPC) 98 % of control | [20] 100 % of control

CN(C)/C=N/N1CCN(C)CC1
inactive: [21] 115 % of control | dose: 200.0 mg/kg/injection, schedule: Q04DX002 (ip), vehicle: saline 101 % of control | dose: 400.0 mg/kg/injection, schedule: Q04DX002 (ip), vehicle: saline 97 % of control

O=C(CNC(=O)Nc1ccc(Cl)c(Cl)c1)N/N=C/c1cccc(F)c1
inactive: dose: 50.0 mg/kg/injection, schedule: Q01DX009 (ip), vehicle: saline with Tween-80 96 % of control | [9] 93 % of control | [10] 89 % of control

C=COCCOC
inactive: [9] 104 % of control | [10] 101 % of control | [11] 107 % of control

ClCc1ccncc1
inactive: dose: 100.0 mg/kg/injection, schedule: Q01DX009 (ip), vehicle: saline 87 % of control | dose: 100.0 mg/kg/injection, schedule: Q04DX003 (ip), vehicle: saline 109 % of control | dose: 200.0 mg/kg/injection, schedule: Q01DX009 (ip), vehicle: saline 95 % of control | dose: 200.0 mg/kg/injection, schedule: Q04DX003 (ip), vehicle: saline 98 % of control | dose: 400.0 mg/kg/injection, schedule: Q04DX003 (ip), vehicle: saline 98 % of control

CCOC(C)=NC1=C(C#N)CP(c2ccccc2)CC1 (centres undefined)
inactive: [2] 103 % of control | [5] 95 % of control | [7] 92 % of control

Cc1ccc(S(=O)(=O)N(c2cc([N+](=O)[O-])ccc2Br)S(=O)(=O)c2ccc(C)cc2)cc1
inactive: [2] 88 % of control | [5] 98 % of control | [7] 88 % of control

CCOP(=O)(Nc1ccc2c(c1)C(O)c1ccccc1-2)OCC (centres undefined)
inactive: dose: 50.0 mg/kg/injection, schedule: Q01DX001 (ip), vehicle: carboxymethylcellulose (CMC) 100 % of control | [13] 94 % of control | [15] 103 % of control | [17] 103 % of control

Cc1cccc(SC(=O)SC(C)CN)c1 (centres undefined)
inactive: dose: 25.0 mg/kg/injection, schedule: Q04DX002 (ip), vehicle: saline 99 % of control | dose: 50.0 mg/kg/injection, schedule: Q04DX002 (ip), vehicle: saline 105 % of control | [21] 94 % of control and 99 % of control
